In one experiment the test system is T1, Bacillus subtilis.
T1 construct: ATCC 6633
The experiment in a line: microbe, parasite or virus in culture. Also on record: antibacterial 96-well microtiter plate assay, visible growth, 37 °C. To be noted: 12 h. The source says: (§1) Four bacteria (Staphylococcus aureus ATCC6538, Bacillus subtilis ATCC 6633, Escherichia coli ATCC 25922, and Listeria monocytogenes ATCC 1911) were used for antibacterial evaluation for all compounds, referring to the previous method with ampicillin as a positive control. […] Five phytopathogens (Fusarium oxysporum f. sp. cubense, Fusarium spp., Peronophythora litchii, Colletotrichum gloeosporioides, and Hylocereus undatus) were used for antifungal evaluation for all compounds, referring to the previous broth microdilution method with carbendazim as a positive control. […] Each test was performed in triplicate. The inhibitory activity of all compounds against four bacteria (Staphylococcus aureus ATCC6538, Bacillus subtilis ATCC 6633, Escherichia coli ATCC 25922, and Listeria monocytogenes ATCC 1911) was evaluated using the 96-well microtiter plates method.

A further experiment has as its system T2, Escherichia coli.
T2 construct: ATCC 25922
The experiment in a line: microbe, parasite or virus in culture. Also on record: antibacterial 96-well microtiter plate assay, visible growth, 37 °C. To be noted: 12 h.
Text: as §1

The test system of another experiment is T3, Listeria monocytogenes.
T3 construct: ATCC 1911
The experiment in a line: microbe, parasite or virus in culture. Further details: antibacterial 96-well microtiter plate assay, visible growth, 37 °C. To be noted: 12 h.
Text: as §1

In a further experiment the test system is T4, Staphylococcus aureus.
T4 construct: ATCC 6538
The experiment in a line: microbe, parasite or virus in culture. Also on record: antibacterial 96-well microtiter plate assay, visible growth, 37 °C. To be noted: 12 h.
Text: as §1

The test system of experiment [1] is Colletotrichum gloeosporioides. Kind of experiment: microbe, parasite or virus in culture. To be noted: 48 h. Also on record: antifungal broth microdilution, visible growth, 28 °C. How it is done: (§2) Four bacteria (Staphylococcus aureus ATCC6538, Bacillus subtilis ATCC 6633, Escherichia coli ATCC 25922, and Listeria monocytogenes ATCC 1911) were used for antibacterial evaluation for all compounds, referring to the previous method with ampicillin as a positive control. The bacteria inhibitory activity of all compounds was observed after 12 h in a constant temperature incubator at 37 °C. Five phytopathogens (Fusarium oxysporum f. sp. cubense, Fusarium spp., Peronophythora litchii, Colletotrichum gloeosporioides, and Hylocereus undatus) were used for antifungal evaluation for all compounds, referring to the previous broth microdilution method with carbendazim as a positive control. The fungal inhibitory activity of all compounds was observed after 48 h in a constant temperature incubator at 28 °C. […] Each test was performed in triplicate. The inhibitory activities of all compounds against five phytopathogenic fungi (Fusarium oxysporum f. sp. cubense, Fusarium spp., Peronophythora litchii, Colletotrichum gloeosporioides, and Hylocereus undatus) were evaluated using the broth microdilution method.

The subject of experiment [2] is Fusarium oxysporum f. sp. cubense. Kind of experiment: microbe, parasite or virus in culture. Also on record: antifungal broth microdilution, visible growth, 28 °C. To be noted: 48 h. How it is done:
as §2

Another experiment has as its system Peronophythora litchii. Kind of experiment: microbe, parasite or virus in culture. To be noted: Phytophthora litchii, 48 h. Further details: antifungal broth microdilution, visible growth, 28 °C. How it is done:
as §2

The next experiment relates to Fusarium spp. Kind of experiment: microbe, parasite or virus in culture. To be noted: 48 h, read-out: Fusarium spp. MIC. How it is done:
as §2, with “triplicate.” for “triplicate. The inhibitory activities of all compounds against five phytopathogenic fungi (Fusarium oxysporum f. sp. cubense, Fusarium spp., Peronophythora litchii, Colletotrichum gloeosporioides, and Hylocereus undatus) were evaluated using the broth microdilution method.”

The target of another experiment is α-glucosidase. The experiment in a line: α-glucosidase inhibition assay with p-NPG as substrate. Format: biochemical.

Drawing on article PMC9784055, “Meroterpenoids and Steroids from the Marine-Derived Fungus Trametes sp. ZYX-Z-16” (Molecules, 2022), this text covers MIC and IC50 for 16 molecules.

In brackets after ≈: the same amount, converted by molar mass.

Consider `CC1(C)S[C@@H]2[C@H](NC(=O)[C@H](N)c3ccccc3)C(=O)N2[C@H]1C(=O)O` [Ampicillin], for which the MIC in the experiment with Bacillus subtilis, in the experiment on Escherichia coli, with Listeria monocytogenes and with Staphylococcus aureus was less than 1 µg/mL in each case.
For `COC(=O)Nc1nc2ccccc2[nH]1` [Carbendazim], the MIC (in experiment [1]; in experiment [2]; against Peronophythora litchii; in the experiment on Fusarium spp.) was less than 1 µg/mL in each case.
`COC(=O)C1C(=O)C(C)=C2OC3(CC2(C)C1C)C(C)C(O)CC1C(C)(C)OC(=O)CCC13C` (stereo not shown) [compound 1, asnovolin H]: the MIC (against Bacillus subtilis; in the experiment with Escherichia coli; in the experiment with Listeria monocytogenes; in the experiment on Staphylococcus aureus; in experiment [1]; in experiment [2]) was more than 128 µg/mL in each case. In addition, the MIC with Peronophythora litchii and in the experiment with Fusarium spp. was more than 128 µg/mL each time.
On to `CC1=C2O[C@@]3(C[C@]2(C)C(C)=C(C(=O)O)C1=O)[C@@H](C)CC[C@H]1C(C)(C)OC(=O)CC[C@@]13C` [compound 2, asnovolin I], for which the MIC (in the experiment with Bacillus subtilis; against Escherichia coli; in the experiment with Listeria monocytogenes; with Staphylococcus aureus; in experiment [1]; in [2]) was more than 128 µg/mL each time. Also, the MIC with Peronophythora litchii and with Fusarium spp. was more than 128 µg/mL in each case.
As for `COC(=O)C1=C(C)C2(C)CC3(OC2=C(C)C1=O)C(C)CCC1C(C)(C)OC(=O)CCC13C` (stereo not shown) [compound 3, asnovolin C 5′6′-dehydro hydrogen], the MIC (in the experiment on Bacillus subtilis; against Escherichia coli; in the experiment on Listeria monocytogenes; against Staphylococcus aureus; in [1]; in [2]) was more than 128 µg/mL each time. Besides, the MIC in the experiment on Peronophythora litchii and in the experiment on Fusarium spp. was more than 128 µg/mL throughout.
Turning to `COC(=O)CC[C@@]1(C)[C@H](C(C)(C)O)CC[C@H](C)[C@@]12C[C@@]1(C)C(=C(C)C(=O)[C@@H](C(=O)OC)[C@@H]1C)O2` [compound 4, asnovolin C], the MIC (against Bacillus subtilis; against Escherichia coli; with Listeria monocytogenes; with Staphylococcus aureus; in experiment [1]; in experiment [2]) was more than 128 µg/mL each time. In addition, the MIC in the experiment on Peronophythora litchii and in the experiment on Fusarium spp. was more than 128 µg/mL each time.
For the molecule `CC1=CC(=O)C(C)=C2O[C@@]3(C[C@]12C)[C@@H](C)CC[C@H]1C(C)(C)[C@@H](O)CC[C@@]13C` [compound 5, chermesin A], the MIC against Bacillus subtilis is more than 128 µg/mL; with Escherichia coli it was more than 128 µg/mL; against Listeria monocytogenes, more than 128 µg/mL; against Staphylococcus aureus, 128 µg/mL (≈ 344 µM); in experiment [1] it was more than 128 µg/mL; in [2], more than 128 µg/mL. Also, the MIC against Peronophythora litchii and with Fusarium spp. was more than 128 µg/mL each time.
`C[C@@H]1Cc2c3c(cc(O)c2C(=O)O1)O[C@@]1(C)[C@@H](O)C[C@H]2C(C)(C)C(=O)C=C[C@]2(C)[C@@H]1C3` [compound 6, chrodrimanin E]: the MIC (in the experiment on Bacillus subtilis; against Escherichia coli; against Listeria monocytogenes; against Staphylococcus aureus; in experiment [1]; in experiment [2]) was more than 128 µg/mL throughout. Moreover, the MIC in the experiment on Peronophythora litchii and in the experiment with Fusarium spp. was more than 128 µg/mL each time.
Take `C[C@@H]1Cc2c3c(cc(O)c2C(=O)O1)O[C@@]1(C)[C@@H](O)C[C@H]2C(C)(C)C(=O)CC[C@]2(C)[C@@H]1C3` [compound 7, chrodrimanin H]: the MIC (against Bacillus subtilis; against Escherichia coli; with Listeria monocytogenes; against Staphylococcus aureus; in [1]; in experiment [2]) was more than 128 µg/mL throughout. Moreover, the MIC against Peronophythora litchii and with Fusarium spp. was more than 128 µg/mL each time.
For `CC(=O)O[C@@H]1c2c3c(cc(O)c2C(=O)O[C@@H]1C)O[C@]1(C)[C@H](C3)[C@@]2(C)CCC(=O)C(C)(C)[C@@H]2C[C@@H]1O` [compound 8, thailandolide B], the MIC (against Bacillus subtilis; in the experiment with Escherichia coli; with Listeria monocytogenes; against Staphylococcus aureus; in [1]; in experiment [2]) was more than 128 µg/mL throughout. For the same molecule, the MIC against Peronophythora litchii and in the experiment on Fusarium spp. was more than 128 µg/mL in each case.
Take `CC(C)[C@@H](C)/C=C/[C@@H](C)[C@H]1CC[C@H]2C3=C(CC[C@]12C)[C@@]1(C)CCC(=O)C=C1C=C3` [compound 9, ergosta-4,6,8,22E-tetraene-3-one]: the MIC (against Bacillus subtilis; with Escherichia coli; in the experiment with Listeria monocytogenes; in the experiment with Staphylococcus aureus; in experiment [1]; in experiment [2]) was more than 128 µg/mL throughout. The MIC against Peronophythora litchii and in the experiment on Fusarium spp. was more than 128 µg/mL in each case.
Take `CC(C)[C@@H](C)/C=C/[C@@H](C)[C@H]1CC[C@@]2(O)C3=CC(=O)C4=CC(=O)CC[C@]4(C)[C@H]3CC[C@]12C` [compound 10, 14α-hydroxyergosta-4,7,22E-triene-3,6-dione]: on α-glucosidase, inhibition was half-maximal at 111 µM (IC50). The MIC (with Bacillus subtilis; against Escherichia coli; against Listeria monocytogenes; against Staphylococcus aureus; in [1]; in experiment [2]) was more than 128 µg/mL throughout. Moreover, the MIC in the experiment on Peronophythora litchii and with Fusarium spp. was more than 128 µg/mL each time.
For the molecule `CC(C)C(C)C=CC(C)C1CCC2C3CC(O)C4=CC(=O)CCC4(C)C3CCC12C` (stereo not drawn) [compound 13, ergosta-6α-hydroxy-4,22E-dien-3-one], the MIC (against Bacillus subtilis; against Escherichia coli; with Listeria monocytogenes; in the experiment on Staphylococcus aureus; in [1]; in experiment [2]) was more than 128 µg/mL throughout. In addition, the MIC in the experiment with Peronophythora litchii and with Fusarium spp. was more than 128 µg/mL throughout.
For `CO[C@@H]1C[C@H]([C@H](C)/C=C/[C@H](C)C(C)C)[C@@]2(C)CC[C@H]3C(=C12)C=CC1=CC(=O)CC[C@@]13C` [compound 16, 15β-methoxy-ergosta-4,6,8(14),22E-tetraene-3-one], the MIC (against Bacillus subtilis; in the experiment with Escherichia coli; against Listeria monocytogenes; with Staphylococcus aureus; in [1]; in experiment [2]) was more than 128 µg/mL throughout. Also, the MIC against Peronophythora litchii and with Fusarium spp. was more than 128 µg/mL in each case.
In the case of `CC(C)[C@@H](C)/C=C/[C@@H](C)[C@H]1CC(=O)C2=C3C=CC4=CC(=O)CC[C@]4(C)[C@@]3(O)CC[C@@]21C` [compound 17, ganodermaside C], the MIC (in the experiment with Bacillus subtilis; against Escherichia coli; against Listeria monocytogenes; in the experiment on Staphylococcus aureus; in experiment [1]; in [2]) was more than 128 µg/mL each time. For the same molecule, the MIC against Peronophythora litchii and with Fusarium spp. was more than 128 µg/mL in each case.
Take `CC(C)[C@@H](C)/C=C/[C@@H](C)[C@H]1C[C@H](O)C2=C3C=CC4=CC(=O)CC[C@]4(C)C3CC[C@@]21C` (stereo partly shown) [compound 18, ganodermaside A]: the MIC (against Bacillus subtilis; against Escherichia coli; with Listeria monocytogenes; with Staphylococcus aureus; in experiment [1]; in experiment [2]) was more than 128 µg/mL each time. Also, the MIC in the experiment with Peronophythora litchii and in the experiment on Fusarium spp. was more than 128 µg/mL each time.
